The subject of assay [1] is Crabgrass (CG). Put plainly: Pre-emergence herbicide test. It is filed as in vivo, Digitaria sanquinalis. The following applies: Digitaria sanguinalis, pre-emergence, 336 h, two weeks after treatment; for pest or weed control at 8966.8 g/ha: 8 lb/acre. How it is done: (§1) Crabgrass (CG)--Digitaria sanquinalis
(§2) All crop and weed species were planted individually in 3' plastic pots containing potting soil. Four seeds each of corn, cotton, and snapbeans were seeded to a depth equal to the diameter of the seed. All other species were surface seeded and sprinkled with screened soil in an amount sufficient to cover the seed. Immediately after planting, all pots were watered by sub-irrigation in greenhouse trays. Pots for the pre-emergence phase were seeded one day before treatment.
(§3) Spray hood constants required to deliver the above volume are as follows:
(§4) Formulations for spray applications were prepared in 50 ml volumes with the following three components: […]
(§5) Spray applications were made in a hood containing a removable belt and fixed spray nozzle. For passage through the spray hood, one pot of each specie (pre-emergence phase) was placed on the rear half of the flat. Treatments were removed to the greenhouse after spraying. Watering during the observation period was done only by sub-irrigation.
(§6) Two weeks after treatment, pre- and post-emergence injury or control was visually rated, and the results were as shown in the following tables. Pre-emergence data are provided in TABLE III and post-emergence data are provided in TABLE IV, for compounds having the formula illustrated in TABLE I. Correspondingly, pre-emergence and post-emergence data, respectively, are set forth in TABLES V AND VI, for compounds having the formula illustrated in TABLE II.

Assay [2] has as its system Johnson grass (JG). Kind of assay: Pre-emergence herbicide test. It is filed as in vivo, Sorgum helepense. The following applies: Sorghum halepense, 336 h, two weeks after treatment; for pest or weed control at 8966.8 g/ha: 8 lb/acre. The protocol:
(§7) Johnson grass (JG)--Sorgum helepense
as §2
(§8) Compounds were tested at rates of application equivalent to 8 lbs. of actual compound per acre in a spray volume of 38 gallons per acre. Spray hood constants required to deliver the above volume are as follows:
(§9) Formulations for spray applications were prepared in 50 ml volumes with the following three components:
(§10) Formulations for the 4 lbs/acre rate were prepared by adjusting the amount of active ingredient accordingly.
as §5, §6

Assay [3] relates to Barnyard grass (BG). Kind of assay: Pre-emergence herbicide test. It is filed as in vivo. As to conditions: Echinochloa crus-galli, 336 h, two weeks after treatment; for pest or weed control at 8966.8 g/ha: 8 lb/acre. The protocol: (§11) Barnyard grass (BG)--Echinochloa crus-galli
as §2, §8, §9, §10, §5, §6

For assay [4], the system named is Turnip (TP). Kind of assay: Pre-emergence herbicide test. It is filed as in vivo, Brassica sp. As to conditions: Brassica rapa, pre-emergence, 336 h, two weeks after treatment; for pest or weed control at 8966.8 g/ha: 8 lb/acre. The protocol:
(§12) Turnip (TP)--Brassica sp.
as §2, §3, §4, §5, §6

In assay [5] the test system is Cotton (CT). Kind of assay: Pre-emergence herbicide test. The format is in vivo, Gossypium hirsutum var. DPL smooth leaf. As to conditions: Gossypium hirsutum, 336 h, two weeks after treatment; for pest or weed control at 8966.8 g/ha: 8 lb/acre. How it is done:
(§13) Cotton (CT)--Gossypium hirsutum var. DPL smooth leaf
as §2, §8, §9, §10, §5, §6

The test system of assay [6] is Corn (CN). Kind of assay: Pre-emergence herbicide test. The format is in vivo. As to conditions: Zea mays, 336 h, two weeks after treatment; for pest or weed control at 8966.8 g/ha: 8 lb/acre. How it is done: as §2, §8, §9, §10, §5, §6
The subject of assay [7] is Bean (BN). Put plainly: Pre-emergence herbicide test. The format is in vivo, Phaseolus vulgaris var. Black Valentine. The following applies: Phaseolus vulgaris, 336 h, two weeks after treatment; for pest or weed control at 8966.8 g/ha: 8 lb/acre. The protocol:
(§14) Bean (BN)--Phaseolus vulgaris var. Black Valentine
as §2, §8, §9, §10, §5, §6

Assay [8] relates to Crabgrass (CG). Kind of assay: Post-emergence herbicide test. It is filed as in vivo, Digitaria sanquinalis. The following applies: Digitaria sanguinalis, post-emergence, 336 h, two weeks after treatment; for pest or weed control at 8966.8 g/ha: 8 lb/acre. How it is done: as §1, §2
(§15) Planting dates for the post-emergence phase were varied so that all seedlings would reach the desired stage of development simultaneously. The proper stage of seedling development for treatment in the post-emergence phase is as follows:
as §3, §4, §5, §6

Assay [9] has as its system Johnson grass (JG). Kind of assay: Post-emergence herbicide test. The following applies: Sorghum halepense, 336 h, two weeks after treatment; for pest or weed control at 8966.8 g/ha: 8 lb/acre. The format is in vivo, Sorgum helepense. The protocol:
as §7, §2, §15, §8, §9, §10, §5, §6

The subject of assay [10] is Barnyard grass (BG). Kind of assay: Post-emergence herbicide test. The following applies: Echinochloa crus-galli, 336 h, two weeks after treatment; for pest or weed control at 8966.8 g/ha: 8 lb/acre. The format is in vivo. How it is done: as §11, §2, §15, §8, §9, §10, §5, §6
Assay [11] deals with Turnip (TP). Put plainly: Post-emergence herbicide test. The format is in vivo, Brassica sp. As to conditions: Brassica rapa, post-emergence, 336 h, two weeks after treatment; for pest or weed control at 8966.8 g/ha: 8 lb/acre. The protocol:
as §12, §2, §15
Pigweed and turnips: 1 or 2 true leaves above visible cotyledons.
as §3, §4, §5, §6

In assay [12] the test system is Cotton (CT). Put plainly: Post-emergence herbicide test. It is filed as in vivo, Gossypium hirsutum var. DPL smooth leaf. The following applies: Gossypium hirsutum, post-emergence, 336 h, two weeks after treatment; for pest or weed control at 8966.8 g/ha: 8 lb/acre. How it is done: as §13, §2, §15
Cotton: first true leaf 1' in length; expanded cotyledons.
as §3, §9, §10, §5, §6

Assay [13] relates to Corn (CN). Kind of assay: Post-emergence herbicide test. It is filed as in vivo. As to conditions: Zea mays, 336 h, two weeks after treatment; for pest or weed control at 8966.8 g/ha: 8 lb/acre. The protocol:
as §2, §15, §8, §9, §10, §5, §6

The subject of assay [14] is Bean (BN). Put plainly: Post-emergence herbicide test. It is filed as in vivo, Phaseolus vulgaris var. Black Valentine. As to conditions: Phaseolus vulgaris, post-emergence, 336 h, two weeks after treatment; for pest or weed control at 8966.8 g/ha: 8 lb/acre. The protocol:
as §14, §2, §15
Beans: primary leaves expanded, growing point at primary leaf nodes.
as §3, §9, §10, §5, §6

The source of these data is patent US4175081A, “5-Substituted thiadiazole ureas” (priority 1977, dated 1979).

Molecules are shown by their SMILES.

For `CNC(=O)Nc1nnc(-c2cccc(C(F)(F)F)c2)s1` [Example 73], the pest or weed control – broadly, the degree to which the test organism was suppressed or injured, in per cent – at 4483.4 g/ha in the assay on Crabgrass (CG) [1] (4 lb/acre) stood at 0%; in the assay with Johnson grass (JG) [2] (4 lb/acre), 0%; with Barnyard grass (BG) [3] (4 lb/acre) it was 0%; in the assay with Turnip (TP) [4] (4 lb/acre), 60%; in the assay on Cotton (CT) [5] (4 lb/acre) it was 100%; in the assay with Corn (CN) [6] (4 lb/acre) it was 50%. Further, the pest or weed control at 4483.4 g/ha in the assay on Bean (BN) [7] (4 lb/acre) was determined as 80%; in the assay on Crabgrass (CG) [8] (4 lb/acre), 30%; in the assay on Johnson grass (JG) [9] (4 lb/acre), 50%; in the assay on Barnyard grass (BG) [10] (4 lb/acre), 40%; in the assay with Turnip (TP) [11] (4 lb/acre), 60%; in the assay on Cotton (CT) [12] (4 lb/acre), 50%. Moreover, the values for the pest or weed control at 4483.4 g/ha in the assay on Corn (CN) [13] (4 lb/acre) and in the assay on Bean (BN) [14] (4 lb/acre) were 30% and 40%, respectively.

As to `CNC(=O)Nc1nnc(-c2ccccc2Cl)s1` [Example 74], the pest or weed control at 8966.8 g/ha is 20% with Crabgrass (CG) [1]; 0% with Johnson grass (JG) [2]; 30% with Barnyard grass (BG) [3]; 50% in the assay on Turnip (TP) [4]; 100% with Cotton (CT) [5]; 0% with Corn (CN) [6]. For the same compound, the pest or weed control at 8966.8 g/ha is 100% in the assay with Bean (BN) [7]; 70% in the assay with Crabgrass (CG) [8]; 40% in the assay with Johnson grass (JG) [9]; 40% in the assay with Barnyard grass (BG) [10]; 80% in the assay with Turnip (TP) [11]; 50% in the assay with Cotton (CT) [12]. Moreover, the pest or weed control at 8966.8 g/ha with Corn (CN) [13] is 40%; in the assay with Bean (BN) [14], 80%.

`CNC(=O)Nc1nnc(-c2ccc(Cl)cc2Cl)s1` [Example 75]: the pest or weed control at 8966.8 g/ha in the assay on Crabgrass (CG) [1] stood at 0%; in the assay on Johnson grass (JG) [2], 0%; with Barnyard grass (BG) [3], 0%; with Turnip (TP) [4], 40%; in the assay with Cotton (CT) [5], 30%; in the assay on Corn (CN) [6], 0%. Further, the pest or weed control at 8966.8 g/ha with Bean (BN) [7] worked out at 100%; with Crabgrass (CG) [8], 50%; in the assay with Johnson grass (JG) [9], 30%; in the assay on Barnyard grass (BG) [10] it was 40%; in the assay with Turnip (TP) [11], 80%; in the assay with Cotton (CT) [12], 50%. Also, the pest or weed control at 8966.8 g/ha stood at 30% with Corn (CN) [13] and 100% in the assay with Bean (BN) [14].

With `CNC(=O)Nc1nnc(-c2ccc(C)cc2)s1` [Example 76], the pest or weed control at 8966.8 g/ha in the assay with Crabgrass (CG) [1] turned out to be 20%; in the assay with Johnson grass (JG) [2], 0%; with Barnyard grass (BG) [3], 30%; with Turnip (TP) [4] it was 40%; with Cotton (CT) [5] it was 100%; with Corn (CN) [6] it was 50%. Also, the pest or weed control at 8966.8 g/ha came out at 80% with Bean (BN) [7]; 40% in the assay on Crabgrass (CG) [8]; 30% in the assay on Johnson grass (JG) [9]; 40% in the assay with Barnyard grass (BG) [10]; 60% in the assay with Turnip (TP) [11]; 50% in the assay with Cotton (CT) [12]. The results for the pest or weed control at 8966.8 g/ha with Corn (CN) [13] and with Bean (BN) [14] were 30% and 50%, respectively.

Regarding `CCCCCCCCSc1nnc(NC(=O)NC)s1` [Example 78], the pest or weed control with Crabgrass (CG) [1] (1 lb/acre) is 20%. Moreover, the pest or weed control at 1120.85 g/ha amounted to 0% in the assay on Johnson grass (JG) [2] (1 lb/acre); 0% in the assay on Barnyard grass (BG) [3] (1 lb/acre); 0% with Turnip (TP) [4] (1 lb/acre); 30% with Cotton (CT) [5] (1 lb/acre); 0% in the assay with Corn (CN) [6] (1 lb/acre); 80% with Bean (BN) [7] (1 lb/acre). For the same compound, the pest or weed control at 1120.85 g/ha in the assay on Crabgrass (CG) [8] (1 lb/acre) came to 30%; with Johnson grass (JG) [9] (1 lb/acre), 30%; in the assay with Barnyard grass (BG) [10] (1 lb/acre), 40%; with Turnip (TP) [11] (1 lb/acre) it was 100%; in the assay on Cotton (CT) [12] (1 lb/acre), 80%; with Corn (CN) [13] (1 lb/acre), 40%. For the same compound, in the assay on Bean (BN) [14] (1 lb/acre), the pest or weed control at 1120.85 g/ha worked out at 100%.

Consider `CCSCCSc1nnc(NC(=O)NC)s1` [Example 80], for which the pest or weed control at 8966.8 g/ha in the assay with Crabgrass (CG) [1] came out at 50%; in the assay on Johnson grass (JG) [2], 20%; in the assay with Barnyard grass (BG) [3] it was 20%; in the assay on Turnip (TP) [4], 0%; in the assay on Cotton (CT) [5] it was 50%; with Corn (CN) [6] it was 0%. Moreover, the pest or weed control at 8966.8 g/ha in the assay on Bean (BN) [7] turned out to be 100%; with Crabgrass (CG) [8], 90%; in the assay with Johnson grass (JG) [9], 60%; in the assay on Barnyard grass (BG) [10], 50%; in the assay on Turnip (TP) [11], 100%; with Cotton (CT) [12], 80%. Moreover, the pest or weed control at 8966.8 g/ha came out at 0% in the assay with Corn (CN) [13] and 100% with Bean (BN) [14].
